According to patent publication US8309324B2, “Promoters and proteins from Clostridium thermocellum and uses thereof” (University of Rochester, priority 2004, dated 2012):
Entries after “also recorded” stand apart in the source; their conditions may differ.

Tests used:
[1] = system: celC, glyR3, licA, orf4, manB and celT transcripts; assay: RT-qPCR, inducibility of gene expression in C. thermocellum grown on different substrates; type: cell-based, Clostridium thermocellum; settings: substrate 0.5%, time course of 50 hrs, compared with 1-3 linked sugars, FIG. 2
Method: FIG. 2 is a graph showing RT-qPCR results detailing the inducibility of expression of celC, glyR3 and licA when Clostridium thermocellum is grown on a 1-3 linked sugar: lichenan, laminarin and laminaribiose, compared to the 1-4 linked sugar, cellobiose. The bacterium was grown on the substrates for a time course of 50 hrs. Each 10 hours a sample was taken and the RNA harvested, DNase I digested, subjected to reverse transcription, and then qPCR. Columns left to right for each substrate represent relative transcription levels of celC, glyR3, licA orf4 manB and ceIT, respectively. The qPCR levels are all relative to the 16S transcript in C. thermocellum.
To test the effect of growth substrate on the inducibility of the expression of celC, glyR3, licA, orf4, manB, and celT genes in C. thermocellum, C. thermocellum was grown on substrates containing either a 1-4 linked sugar (cellobiose) or a 1-3 linked sugar (laminarin, lichenan, and laminaribiose). RT-qPCR was carried out on the cells to determine the level of 16S transcripts of the genes, as follows.
The bacterium was grown on the substrates for a time course of 50 hrs. Each 10 hrs a sample was taken. Cultures were centrifuged to collect the cells. Everything used from this point forward was RNase free. […] RNA concentration was measured using a Hitachi U-2000 spectrophotometer at 260/280 nm. […]

CelR = molecular target: T1, CelR (Thermobifida fusca, UniProt O87590); settings: Spiridonov et al. 1999; cited from earlier work
T1 sequence (O87590 1-340): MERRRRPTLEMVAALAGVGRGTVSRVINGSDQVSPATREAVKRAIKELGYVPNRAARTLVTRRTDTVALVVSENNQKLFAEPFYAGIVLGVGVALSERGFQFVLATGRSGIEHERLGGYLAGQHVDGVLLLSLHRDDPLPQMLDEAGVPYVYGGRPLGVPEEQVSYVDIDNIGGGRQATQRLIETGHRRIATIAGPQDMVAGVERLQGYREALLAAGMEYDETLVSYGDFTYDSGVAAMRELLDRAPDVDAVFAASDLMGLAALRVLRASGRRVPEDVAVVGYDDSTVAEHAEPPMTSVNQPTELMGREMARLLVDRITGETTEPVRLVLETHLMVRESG

[2] = system: rGlyR3-celC promoter complex; assay: EMSA, effect of sugars on the rGlyR3-celC promoter complex; type: binding, Clostridium thermocellum; settings: for effect of sugar on the rGlyR3-celC promoter binding reaction: 15 mM sugar, 5 ng 100 bp celC promoter DNA, 0.5 ng rGlyR3, FIG. 17
Method: The EMSA analyzing biotin labeled DNA fragments. Lane 1, no protein and 5 ng DNA; Lanes 2-12 contain 5 ng 100 bp celC promoter DNA, 0.5 ng rGlyR3 and 15 mM of their respected sugars.
(§1) All EMSA experiments described herein were performed using a 4% polyacrylamide gel and Tris-Borate-EDTA buffer. EMSA reactions all contained: 500 ng poly (dI-dC), 1× Lightshift EMSA kit binding buffer (Pierce), 1× Lightshift loading dye (Pierce), optimized amounts of DNA probe, protein, and saccharides as specified in figure legends.
The binding of the rGlyR3 protein was inhibited by laminaribiose. Several sugars were tested to see if they could inhibit the rGlyR3-celC promoter complex.

celC transcription = assay: In vitro transcription assay (RT-qPCR readout); type: biochemical, Clostridium thermocellum
Method: The baseline transcription mixture consists of: rNTPs, transcription buffer, 1 ug of 850 bp DNA containing celC and its promoter region, 10 ul C. thermocellum cell lysate (grown on cellobiose). After transcription, the RNA was harvested, DNase I digested, used in a Reverse Transcriptase reaction and then in qPCR.
A DNA template for in vitro transcription was created using the following primers (SEQ ID NO:30): Invt-F-[…]; (SEQ ID NO:31): Invt-R-CCAGTGGGCTTTCTGATGC) to amplify the 200 bp celC promoter along with 650 bp of the celC gene. PCR used a standard reaction for Extensor Hi-Fidelity Enzyme with genomic DNA as template. Each in vitro transcription assay contained: 10 μl C. thermocellum cell lysate (cellobiose grown culture), 2 μl RNase Out (Invitrogen, Carlsbad, Calif.), 1× RNA polymerase buffer, 1 μg of DNA template, 25 nM rNTP's, differing amounts of rGlyR3, differing amounts of laminaribiose, and DEPC water to a volume of 50 μl. The reactions were incubated at 60° C. for 50 minutes. After incubation the resulting RNA was isolated using the previously described Trizol method. The isolated RNA was subjected to DNase I digestion and a standard reverse transcription reaction as described above. Using the qPCR protocol already outlined, with primers for celC, it was possible to show the amount of transcript created for each reaction.

[3] = system: rGlyR3-celC promoter complex; assay: EMSA rGlyR3 binding site competition assay; design: species or system Clostridium thermocellum; settings: 100x unlabeled competitor, 0.5 ng rGlyR3, FIG. 16
Method: FIG. 16 is a gel showing the results of an EMSA rGlyR3 binding site competition assay. A gel shift competition assay was used to analyze specificity of binding and confirm the DNase I footprint results. All lanes contain biotin labeled 100 bp celC promoter fragment containing the binding site. Lane 1, no protein; Lane 2, 0.5 ng rGlyR3; Lane 3, 0.5 ng rGlyR3 and 100× unlabeled 18 bp binding site; Lane 4, 0.5 ng rGlyR3 and 100 × control fragment (18 bp piece of original 100 bp region, contains no part of putative binding site).
as §1
The 18 bp sequence corresponds to (SEQ ID NO:36): AATGAACGC GCGTACATT.

celC promoter region = assay: EMSA, binding of rGlyR3 to the celC promoter region; design: species or system Clostridium thermocellum
Method: Gel Shift, or Band Shift Assay, or Electrophoretic Mobility Shift Assay (EMSA) is a technique for studying gene regulation and determining protein:DNA interactions. The assay is based on the observation that complexes of protein and DNA migrate through a non-denaturing polyacrylamide gel more slowly than free DNA fragments or double-stranded oligonucleotides. The gel shift assay is carried out by first incubating a protein(s) (such as nuclear or cell extract) with a 32^P end-labeled DNA fragment containing the putative protein binding site. The reaction products are then analyzed on a non-denaturing polyacrylamide gel. The specificity of the DNA-binding protein for the putative binding site is established by competition experiments using DNA fragments or oligonucleotides containing a binding site for the protein of interest or other unrelated DNA sequences.
as §1
EMSA gels were electroblotted onto Biodyne B membrane (Pall Corporation). Signal development was accomplished using the Lightshift Chemiluminescent EMSA kit protocol (Pierce). Kodak Biomax film captured the luminescence for viewing.
Probes for EMSA were created using PCR with Thermostart Taq (ABgene) as a polymerase. The standard Thermostart protocol was used with varying extension times (1 kb/minute rule always followed) and different annealing temperatures (57° C.-62° C.). Primers were synthesized with a 5′ biotin label by Invitrogen (Carlsbad, Calif.). Primers (5′-3′) used: […]
For probes that contained just the 18 bp binding site, complementary DNA fragments were synthesized and annealed by heating to 94 C and then cooling:
(§2) The dissociation constant was determined as the concentration of GlyR3 needed to shift 50% of the celC promoter region in the EMSA.

[4] = system: 200 bp fragment of the celS structure gene; assay: EMSA, rGlyR3 with celS structure gene fragment as probe; type: binding, Clostridium thermocellum; settings: FIG. 11, lanes 5 and 6
Method: as §1, §2

Molecule: O=C[C@H](O)[C@@H](O)[C@H](O[C@@H]1O[C@H](CO)[C@@H](O)[C@H](O)[C@H]1O)[C@H](O)CO [cellobiose]
- transcript level of the gene cluster relative to 16S transcript [1]: less of the transcript containing the genes is produced
- concentration inhibiting binding of CelR to its target DNA sequence (CelR): 0.2 to 0.5 mM

Molecule: OC[C@H]1O[C@@H](OC[C@H]2OC(O)[C@H](O)[C@@H](O)[C@@H]2O)[C@H](O)[C@@H](O)[C@@H]1O (some centres unmarked) [gentibiose]
- effect of sugar on the rGlyR3-celC promoter binding reaction [2]: no effect

Molecule: OC[C@H]1O[C@@H](O[C@H]2[C@H](O)[C@@H](O)C(O)O[C@@H]2CO)[C@H](O)[C@@H](O)[C@H]1O (some centres unmarked) [lactose]
- effect of sugar on the rGlyR3-celC promoter binding reaction [2]: no effect

Molecule: OC[C@H]1O[C@@H](O[C@H]2[C@H](O)[C@@H](CO)OC(O)[C@@H]2O)[C@H](O)[C@@H](O)[C@@H]1O (some centres unmarked) [laminaribiose]
- effect on celC transcription in presence of GlyR3 (celC transcription; 5 mM laminaribiose in addition to 400 ng GlyR3, FIG. 3): transcription returned to baseline levels or greater
- effect of sugar on the rGlyR3-celC promoter binding reaction [2]: severely reduced the formation of the DNA-protein complex
- effect on binding of GlyR3 to the 18 bp binding site ([2]; FIG. 15): inhibited
- effect of laminaribiose on GlyR3-100 bp celC promoter interaction ([2]; GlyR3 0.5 ng, DNA 5 ng, increasing laminaribiose, FIG. 9): inhibited; also recorded: DNA-protein complex diminished as the concentration of laminaribiose increased

Molecule: OC[C@H]1O[C@H](O[C@H]2[C@H](O)[C@@H](O)[C@H](O)O[C@@H]2CO)[C@H](O)[C@@H](O)[C@@H]1O [maltose]
- effect of sugar on the rGlyR3-celC promoter binding reaction [2]: no effect

Molecule: OC[C@H]1O[C@@](CO)(O[C@H]2O[C@H](CO)[C@@H](O)[C@H](O)[C@H]2O)[C@@H](O)[C@@H]1O [sucrose]
- effect of sugar on the rGlyR3-celC promoter binding reaction [2]: no effect

Molecule: unlabeled 18 bp binding site: 18 bp near perfect palindromic sequence of the celC promoter, SEQ ID NO:36: AATGAACGC GCGTACATT (DNA AATGAACGCGCGTACATT; listed as DNA, chemistry not given here)
- competition for the shifted band of the 100 bp celC promoter fragment [3]: able to compete out the shifted band

B1: GlyR3: C. thermocellum LacI-like repressor protein, amino acid sequence SEQ ID NO:3; rGlyR3 is the recombinant form expressed in E. coli (protein)
chain: MTSEEIAKLCGVSRATVSRVINNSPNVKEETRQKILAVIKEKNYVPIAPARRLAGIDSNIIGLFVLDIDISESKSRVSESTYFSRLINLIIDQANNFGFQVLVSIITSQKQLSEIRNLFMSRTIFSGIFIGAFNDEIQLDDDIIMQHPTIIIDRQSERMVKKPNRLVVNLDNFEGAYNATQFLIKLGHTRIGHISGDLRKLSGIERYEGYKKALEDAGLGFDKNLVREGNFLDDSGYRLAREILKENVTAIFCANDVMAISAIKAIKETGLSVPDDISVIGFDNTAIGNYIMPALTTVNAPLEHIAEACIESLKYFCEHKHFKQKEIRVKTDLIIRDSTKRALEF
modifications: C. thermocellum
notes: rGlyR3 is the recombinant form expressed in E. coli
- effect on transcription of the celC gene in vitro (celC transcription; 400 ng GlyR3, FIG. 3): can inhibit transcription
- binding to first and second halves of the celC promoter (band shift) (celC promoter region; 0.5 ng rGlyR3, 5 ng of each probe, FIG. 11): creates a shifted band with both probes
- binding to the 200 bp celC promoter region (celC promoter region; 1 ng protein, 5 ng DNA, FIG. 12): binds
- binding to a control fragment of 18 bp located within the celC promoter (celC promoter region; FIG. 13): no binding
- binding to the 18 bp DNA fragment (binding site) (celC promoter region; FIG. 13): dose dependent binding
- binding to 200 bp fragment of the celS structure gene [4]: does not bind
